Assay results taken from US20020168329A1, “Skin composition” (Unilever Home & Personal Care USA, Division of Conopco, Inc., priority 2001, published 2002).

System: Volunteers with oily skin type
Test: Oil (sebum) secretion on the skin measured with Sebumeter SM 810 PC after one week of twice-daily cream use
Type: in vivo, human
Settings: after 2 hours; conclusion from Table 1
Experimental: Method of Testing Oil Secretion:
The above mentioned formulations (Examples 1 to 4) were tested for their efficacy in reducing the oil secretion on the skin using a sebumeter by the following protocol.
Volunteers with oily skin type were recruited. The initial sebum was measured with Sebumeter SM 810 PC on the cheeks, and the selection was made such that they had approximately similar sebum profile. The panellists were asked to use 0.5 g of the assigned cream on their face twice a day, for one week. The sebum profile was measured on the 8th day. The panellists washed their face and the sebum secretion on the skin surface after 2 hours was measured using the Sebumeter SM 810 PC on the cheeks.
Sebumeter is a device for measuring sebum content on skin surface. A piece of plastic film (wound in the form of a cassette) is kept on the skin for 30 sec. By this means the […] measuring area of the plastic film becomes transparent due to absorbed sebum. […] Sebumeter SM 810 PC immediately indicates sebum content between 50 & 300 μgm/cm^2 % sebum reduction is calculated.
The protocol to measure the % reduction in sebum secretion is as per the procedure described above. The samples of creams described in Examples 4, 5 and 6 were tested for their efficacy in reducing the sebum secretion and the data are presented in Table 3.

| Compound | effect in reducing oil secretion on the skin (in words) |
| --- | --- |
| NC(=O)c1cccnc1 [niacinamide] | significant effect in reducing oil secretion on the skin |
| CCCCCCCCCCCCCOC(=O)c1ccccc1O [tridecyl salicylate] | significant effect in reducing oil secretion on the skin |
